Reference: paper PMC3666588 (Journal of medicinal chemistry, 2013)
Entries after “also recorded” stand apart in the source; their conditions may differ. Read-outs that look alike come from different tables or passages of the source.

Assays:
[1] = system: ERα LBD and CBP CH3 domain; conditions: prior report ref 16; cited from earlier work
[2] = molecular target: T1, ERα (Homo sapiens, UniProt P03372); test: ERα radioligand; type: binding; conditions: for ERα RBA: RBA = IC50 for E2 / IC50 for the test compound; for RBA for human ERs: text summary for human ERs (ERα and ERβ)
T1 sequence (P03372 1-595): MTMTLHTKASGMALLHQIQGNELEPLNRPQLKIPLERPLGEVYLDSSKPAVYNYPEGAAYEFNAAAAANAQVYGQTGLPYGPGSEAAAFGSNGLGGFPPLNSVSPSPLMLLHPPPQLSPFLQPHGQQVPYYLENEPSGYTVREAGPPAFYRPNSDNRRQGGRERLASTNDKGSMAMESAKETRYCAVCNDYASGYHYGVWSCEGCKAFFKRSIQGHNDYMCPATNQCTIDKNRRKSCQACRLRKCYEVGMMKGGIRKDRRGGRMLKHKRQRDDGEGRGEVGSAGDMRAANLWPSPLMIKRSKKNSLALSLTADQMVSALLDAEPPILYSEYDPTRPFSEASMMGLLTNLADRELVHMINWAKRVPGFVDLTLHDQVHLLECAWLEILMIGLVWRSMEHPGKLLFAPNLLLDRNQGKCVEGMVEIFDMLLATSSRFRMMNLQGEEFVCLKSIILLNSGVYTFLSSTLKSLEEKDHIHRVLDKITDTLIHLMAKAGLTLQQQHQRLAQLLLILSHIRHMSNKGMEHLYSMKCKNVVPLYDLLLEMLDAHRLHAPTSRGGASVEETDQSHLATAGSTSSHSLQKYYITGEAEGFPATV

[3] = system: MCF-7 cells; test: In vitro cell proliferation assay; type: cell-based, human; conditions: 0-1000 nM, 6 days, 10% FBS, no additional estrogen
[4] = molecular target: T2, ERα LBD and SRC-1 (Homo sapiens, UniProt P03372); test: Mammalian two-hybrid assay, ERα LBD - SRC-1 interaction in HeLa cells; type: cell-based; conditions: 100 nM ligand, GAL-SRC-1 + VP16-ERα-LBD
T2 sequence (P03372 311-547 limits assumed): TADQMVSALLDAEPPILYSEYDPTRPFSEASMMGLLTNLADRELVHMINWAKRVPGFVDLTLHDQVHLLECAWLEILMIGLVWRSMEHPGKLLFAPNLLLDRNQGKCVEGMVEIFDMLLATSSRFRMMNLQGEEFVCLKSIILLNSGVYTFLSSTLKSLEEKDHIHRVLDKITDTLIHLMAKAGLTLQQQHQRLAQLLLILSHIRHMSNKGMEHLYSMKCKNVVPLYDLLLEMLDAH

[5] = system: MDA-MB-231 cells; test: In vitro cell proliferation assay; type: cell-based, human; conditions: 0-1000 nM, 6 days
[6] = molecular target: T1, ERα; test: ERα trans-activation luciferase reporter assay in HeLa cells; conditions: for ERα agonist activity in HeLa or MCF-7 cells: 100 nM derivative, pCR3.1-ERα + ERE-Elb-Luc; for antagonism of E2-stimulated luciferase expression in HeLa cells: in presence of 1 nM E2
[7] = molecular target: T1, ERα; test: ERα trans-activation luciferase reporter assay in MCF-7 cells; conditions: 100 nM derivative, compared with 1 nM E2; ERE-Elb-Luc reporter
[8] = molecular target: T1, ERα; test: ERα trans-activation luciferase reporter assay in HepG2 cells
[9] = molecular target: recombinant human ERβ (Homo sapiens, UniProt Q92731); test: ERβ radioligand; type: binding; conditions: RBA = IC50 for E2 / IC50 for the test compound
recombinant human ERβ, sequence (Q92731 whole entry): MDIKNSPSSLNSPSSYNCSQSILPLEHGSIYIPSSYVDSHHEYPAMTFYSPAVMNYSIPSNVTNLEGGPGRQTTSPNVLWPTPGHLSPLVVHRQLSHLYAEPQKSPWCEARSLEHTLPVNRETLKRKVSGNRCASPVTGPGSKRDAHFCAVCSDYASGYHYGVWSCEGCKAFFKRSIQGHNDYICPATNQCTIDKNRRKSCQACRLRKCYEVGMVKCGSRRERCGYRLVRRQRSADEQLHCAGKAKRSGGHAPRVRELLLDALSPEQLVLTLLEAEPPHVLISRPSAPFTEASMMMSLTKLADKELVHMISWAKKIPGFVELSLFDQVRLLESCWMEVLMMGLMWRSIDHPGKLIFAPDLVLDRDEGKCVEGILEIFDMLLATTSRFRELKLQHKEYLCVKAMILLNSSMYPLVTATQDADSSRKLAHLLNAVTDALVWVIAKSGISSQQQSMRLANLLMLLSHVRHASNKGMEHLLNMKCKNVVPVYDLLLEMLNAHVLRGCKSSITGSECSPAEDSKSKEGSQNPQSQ

Question: With `C[C@]12CC[C@@H]3c4ccc(O)cc4C[C@@H](CCCCCCCCC[S+]([O-])CCCC(F)(F)C(F)(F)F)[C@H]3[C@@H]1CC[C@@H]2O` (stereo partly shown) [ICI-182,780, fulvestrant] as the compound, how does the “promotion of ERα interaction with CBP coactivator” value [1] read?
Answer: strongly promote ERα interaction with the CBP coactivator

Question: For `C[C@]12CC[C@@H]3c4ccc(O)cc4C[C@@H](CCCCC#Cc4ccc(-n5cccc5)cc4)[C@H]3[C@@H]1CC[C@@H]2O` [J1, 3,17β-bis(hydroxy)-7α-[6-(4-pyrrol-1-yl-phenyl)-hex-5-ynyl]-estra-1,3,5(10)-trien], which “ERα RBA” value [2] is on record?
Answer: 21.2%

Question: What about the “RBA for human ERs” value [2] of the same compound?
Answer: > 20 % of E2

Question: And the “effect on growth of ER-positive MCF-7 cells” value [3]?
Answer: either no effect or a stimulatory effect; also recorded: did not show an appreciable effect

Question: And the “promotion of ERα - SRC-1 coactivator interaction” value [4]?
Answer: effectively promoted the interaction

Question: For `C[C@]12CC[C@@H]3c4ccc(O)cc4C[C@@H](CCCCC#Cc4ccc5ccccc5c4)[C@H]3[C@@H]1CC[C@@H]2O` [J2, 3,17β-bis(hydroxy)-7α-(6-naphthalen-2-yl-hex-5-ynyl)-estra-1,3,5(10)-trien], which “ERα RBA” value [2] is on record?
Answer: 3.4%

Question: And the “effect on growth of ER-positive MCF-7 cells” value [3]?
Answer: either no effect or a stimulatory effect; also recorded: did not show an appreciable effect

Question: And the “promotion of ERα - SRC-1 coactivator interaction” value [4]?
Answer: effectively promoted the interaction

Question: For `C[C@]12CC[C@@H]3c4ccc(O)cc4C[C@@H](CCCCC#Cc4ccc(-c5ccno5)cc4)[C@H]3[C@@H]1CC[C@@H]2O` [J3, 3,17β-bis(hydroxy)-7α-[6-(4-Isoxazol-5-yl-phenyl)-hex-5-ynyl]-estra-1,3,5(10)-trien], which “effect on growth of ER-negative MDA-MB-231 cells” value [5] is on record?
Answer: no appreciable effect; also recorded: did not show an appreciable effect

Question: What about the “ERα agonist activity in HeLa or MCF-7 cells” value [6] of the same compound?
Answer: poor agonists

Question: What about the “antagonism of E2-stimulated luciferase expression in HeLa cells” value (“antagonism” below) [6] of the same compound?
Answer: less effective inhibitors

Question: What about the “RBA for human ERs” value [2] of the same compound?
Answer: approximately 1 % of E2

Question: What about the “ERα agonist activity (transcription of target gene) in MCF-7 cells” value (“ERα agonist activity … in MCF-7 cells” below) [7] of the same compound?
Answer: very poor agonists

Question: And the “agonist activity in HepG2 cells relative to E2” value [8]?
Answer: approximately 50 % of the agonist activity of E2

Question: What about the “effect on growth of ER-positive MCF-7 cells” value [3] of the same compound?
Answer: concentration-dependent inhibition

Question: What about the “promotion of ERα - SRC-1 coactivator interaction” value [4] of the same compound?
Answer: did not induce significant SRC-1 binding

Question: Which “effect on growth of ER-negative MDA-MB-231 cells” value [5] does the source give for `CC(C)(C)OC(=O)N1CCN(c2ccc(C#CCCCC[C@@H]3Cc4cc(O)ccc4[C@H]4CC[C@]5(C)[C@@H](O)CC[C@H]5[C@H]34)cc2)CC1` [J4, 4-{4-[6-((7α,17β)-3,17-dihydroxyestra-1,3,5(10)-trien-7-yl)-hex-1-ynyl]-phenyl}-piperazine-1-carboxylic acid tert-butyl ester] here?
Answer: no appreciable effect; also recorded: did not show an appreciable effect

Question: And the “antagonism” value [6]?
Answer: less effective inhibitors

Question: And the “ERα RBA” value [2]?
Answer: 1.1%

Question: And the “RBA for human ERs” value [2]?
Answer: approximately 1 % of E2

Question: And the “ERα agonist activity … in MCF-7 cells” value [7]?
Answer: very poor agonists

Question: What about the “effect on growth of ER-positive MCF-7 cells” value [3] of the same compound?
Answer: concentration-dependent inhibition

Question: What about the “ERβ RBA” value [9] of the same compound?
Answer: 2.0%

Question: And the “promotion of ERα - SRC-1 coactivator interaction” value [4]?
Answer: did not induce significant SRC-1 binding

Question: Which results are given for `CCOC(=O)CC(=O)c1ccc(C#CCCCC[C@@H]2Cc3cc(O)ccc3[C@H]3CC[C@]4(C)[C@@H](O)CC[C@H]4[C@H]23)cc1` [J5, 3-{4-[6-((7α,17β)-3,17-dihydroxyestra-1,3,5(10)-trien-7-yl)-hex-1-ynyl]-phenyl}-3-oxo-propionic acid ethyl ester]?
Answer: ERα RBA [2]: 6.2%; effect on growth of ER-positive MCF-7 cells [3]: either no effect or a stimulatory effect; also recorded: did not show an appreciable effect; ERβ RBA [9]: 4.7%; promotion of ERα - SRC-1 coactivator interaction [4]: effectively promoted the interaction

Question: Which results are given for `C[C@]12CC[C@@H]3c4ccc(O)cc4C[C@@H](CCCCC#Cc4ccc(CN5CCCCC5)cc4)[C@H]3[C@@H]1CC[C@@H]2O` [J6, 3,17β-bis(hydroxy)-7α-[6-(4-piperidin-1-ylmethyl-phenyl)-hex-5-ynyl]-estra-1,3,5(10)-trien]?
Answer: ERα RBA [2]: 0.9%; RBA for human ERs [2]: approximately 1 % of E2; ERα agonist activity (transcription of target gene) in MCF-7 cells [7]: markedly weaker effect; effect on growth of ER-positive MCF-7 cells [3]: either no effect or a stimulatory effect; also recorded: did not show an appreciable effect; promotion of ERα - SRC-1 coactivator interaction [4]: effectively promoted the interaction

Question: Which results are given for `C[C@]12CC[C@@H]3c4ccc(O)cc4C[C@@H](CCCCc4cn(-c5cc6ccc(O)cc6oc5=O)nn4)[C@H]3[C@@H]1CC[C@@H]2O` [J7, 3-{4-[4-((7α,17β)-3,17-dihydroxyestra-1,3,5(10)-trien-7-yl)-butyl]-1,2,3-triazol-1-yl}-7-hydroxy-1-benzopyran-2-one]?
Answer: antagonism of E2-stimulated luciferase expression in HeLa cells [6]: strongest antagonists; ERα agonist activity (transcription of target gene) in MCF-7 cells [7]: no agonist activity; effect on growth of ER-positive MCF-7 cells [3]: concentration-dependent inhibition; promotion of ERα - SRC-1 coactivator interaction [4]: did not induce significant SRC-1 binding

Question: Which results are given for `CCOC(=O)C(Cc1ccc(C#CCCCC[C@@H]2Cc3cc(O)ccc3[C@H]3CC[C@]4(C)[C@@H](O)CC[C@H]4[C@H]23)cc1)C(=O)OCC` [J8, 2-{4-[6-((7α,17β)-3,17-dihydroxyestra-1,3,5(10)-trien-7-yl)-hex-1-ynyl]-benzyl}-malonic acid diethyl ester]?
Answer: ERα RBA [2]: 4.7%; ERα agonist activity (transcription of target gene) in MCF-7 cells [7]: markedly weaker effect; effect on growth of ER-positive MCF-7 cells [3]: either no effect or a stimulatory effect; also recorded: did not show an appreciable effect; ERβ RBA [9]: 5.8%; promotion of ERα - SRC-1 coactivator interaction [4]: effectively promoted the interaction

Question: With `C[C@]12CC[C@@H]3c4ccc(O)cc4C[C@@H](CCCCc4cn(CC5COc6ccccc6O5)nn4)[C@H]3[C@@H]1CC[C@@H]2O` (stereo partly drawn) [J9, 3,17β-bis(hydroxy)-7α-{4-[1-(2,3-Dihydro-1,4-benzodioxin-2-ylmethyl)-1H-1,2,3-triazol-4-yl]-butyl}-estra-1,3,5(10)-trien] as the compound, how does the “ERα agonist activity in HeLa or MCF-7 cells” value [6] read?
Answer: poor agonists

Question: What about the “antagonism” value [6] of the same compound?
Answer: strongest antagonists

Question: And the “ERα RBA” value [2]?
Answer: 24.6%

Question: What about the “RBA for the human ERα” value ([2]; stated in docking discussion) of the same compound?
Answer: 24.6 % of E2

Question: And the “RBA for human ERs” value [2]?
Answer: > 20 % of E2

Question: And the “ERα agonist activity … in MCF-7 cells” value [7]?
Answer: no agonist activity

Question: What about the “agonist activity in HepG2 cells relative to E2” value ([8]; 100 nM derivative, normalized to 1 nM E2, pCR3.1-ERα + ERE-Elb-Luc) of the same compound?
Answer: approximately 50 % of the agonist activity of E2

Question: And the “effect on growth of ER-positive MCF-7 cells” value [3]?
Answer: concentration-dependent inhibition

Question: And the “ERβ RBA” value [9]?
Answer: 21.1%

Question: And the “promotion of ERα - SRC-1 coactivator interaction” value [4]?
Answer: did not induce significant SRC-1 binding
